“Also recorded” adds a separate entry of the source. Structures can show the parent of a compound that is named as a salt. Values belong to the compound of their own block, whether it stands above or below them.
Columns and labels:
[1] = test system: CYP2A6 (tranylcypromine), CYP2E1 (diethyldithiocarbamate); CYP-mediated 5-FU formation from S-FT; test: Effects of CYP-selective inhibitors on 5-FU formation from FT enantiomers in pooled human hepatic microsomes; assay type: in vitro ADME; conditions: human, pooled human liver microsomes, pH 7.4, probe S-FT (S-tegafur) 30 μmol/L, 5-FU formation
Method: (§1) Metabolic reaction by S9 and cytosol (each 2 mg protein/mL) was carried out in 100 mmol/L phosphate (pH 7.4) because TPase requires phosphate ions for catalyzing the reaction. In some cases, insect microsomes expressing recombinant CYP isoforms (20 pmol/mL) were added to the incubation mixtures in either 50, 100 mmol/L phosphate (pH 7.4) or 100 mmol/L Tris (pH 7.4), depending on supplier's recommendation. Microsomal protein concentrations of all cDNA-expressed CYPs were adjusted to 0.5 mg protein/mL by adding control microsomes expressing NADPH-P450 oxidoreductase and cytochrome b5. The reaction for the assay of FT metabolism was initiated by adding the substrate, following preincubation for 5 min at 37°C. After incubation at 37°C, the reaction was stopped by adding three volumes of ice-cold acetonitrile. The incubation times of microsomes, cytosol, and S9 were 15, 15, and 30 min, respectively. After centrifugation, the supernatant was collected and stored at −80°C until the determination of 5-FU. Because a small portion of FT is nonenzymatically converted to 5-FU, the content of 5-FU spontaneously formed was subtracted from total yield obtained after incubation to correct the activity. The spontaneous degradation of FT to 5-FU was evaluated using enzymes inactivated by heating them at 100°C for 5 min.
(§2) The effects of inhibitors of CYP isoforms and TPase, and anti-CYP antibodies on 5-FU formation from FT enantiomers catalyzed by human hepatic preparations were evaluated. In inhibition assays, FT enantiomers were used at the concentrations of 30 μmol/L. 1-Aminobenzotriazole (1 mmol/L) and TPI (10 μmol/L) were used as nonselective inhibitors of CYP isoforms and TPase, respectively. […] Inhibitors were dissolved in methanol and diluted with 100 mmol/L phosphate (pH 7.4) or 100 mmol/L Tris (pH 7.4) so that the final concentration of solvent in the incubation mixture was 0.5%. Methanol was also added to the control at the same concentration as the conditions with inhibitors. Inhibitory effects of anti-CYP antibodies were examined by preincubating microsomes with the antibodies for 10 min on ice. Each polyclonal anti-CYP antibody was used at a concentration ranging 10–40 μL/mg microsomal protein according to the procedure recommended by the supplier. The reaction was performed similarly as described above, except for evaluating the inhibitory effect of furafylline.
(§3) Concentration of 5-FU was determined using a LC/MS/MS system. The analytical system consisted of a HP1100 liquid chromatograph (Agilent Technologies, CA) coupled with an API4000 triple-quadrupole mass spectrometer (Applied Biosystems, CA) equipped with Turbo V source and ESI interface. Sample separation was performed using an Unison UK-Amino column (2.0 mm i.d. × 100 mm, 3 μm; Imtakt, Kyoto, Japan) at a flow rate of 0.2 mL/min at 40°C. The mobile phase consisted of 10 mmol/L ammonium acetate/acetonitrile 10:90 (v/v). […] For quantification of 5-FU, the calibration curves were linear over the range 2–1000 ng/mL.
(§4) For evaluating the effect of furafylline, the preincubation of microsomes with an inhibitor and an NADPH-generating system for 20 min was performed, followed by the enantioselective metabolic reaction. Opened and closed bars represent 5-FU formation rate from R- and S-FT, respectively.

[2] = test system: CYP2A6 (tranylcypromine), CYP2E1 (diethyldithiocarbamate); CYP-mediated 5-FU formation from R-FT; test: as above; assay type: in vitro ADME; conditions: human, pooled human liver microsomes, pH 7.4, probe R-FT (R-tegafur) 30 μmol/L, 5-FU formation
Method: as §1, §2, §3, §4

[3] = Enantioselective conversion of FT to 5-FU in human hepatic S9 with CYP and TPase inhibitors; assay type: in vitro ADME; conditions: FT enantiomer 0.1 mmol/L, 1-aminobenzotriazole 1 mmol/L, TPI 10 μmol/L
Method: Insect microsomes expressing only NADPH-P450 oxidoreductase and cytochrome b5 were also used as control. These enzymes were stored at −80°C until use.
as §1
as §2, with “In inhibition assays, FT enantiomers were used at the concentrations of 30 μmol/L.” left out
(§5) Concentration of 5-FU was determined using a LC/MS/MS system. […] For quantification of 5-FU, the calibration curves were linear over the range 2–1000 ng/mL. […]

[4] = set-up: method as in Damle et al. [2001]; conditions: after oral administration; ref Damle et al. [2001]; cited from earlier work
CYP2A6 = target: T1, CYP2A6 (Homo sapiens, UniProt P11509); test: 5-FU formation from FT enantiomers by cDNA-expressed CYP2A6 (kinetics, velocity, RAF contribution); conditions: CYP2A6; RAF method; 30 μmol/L
T1 sequence (P11509 1-494): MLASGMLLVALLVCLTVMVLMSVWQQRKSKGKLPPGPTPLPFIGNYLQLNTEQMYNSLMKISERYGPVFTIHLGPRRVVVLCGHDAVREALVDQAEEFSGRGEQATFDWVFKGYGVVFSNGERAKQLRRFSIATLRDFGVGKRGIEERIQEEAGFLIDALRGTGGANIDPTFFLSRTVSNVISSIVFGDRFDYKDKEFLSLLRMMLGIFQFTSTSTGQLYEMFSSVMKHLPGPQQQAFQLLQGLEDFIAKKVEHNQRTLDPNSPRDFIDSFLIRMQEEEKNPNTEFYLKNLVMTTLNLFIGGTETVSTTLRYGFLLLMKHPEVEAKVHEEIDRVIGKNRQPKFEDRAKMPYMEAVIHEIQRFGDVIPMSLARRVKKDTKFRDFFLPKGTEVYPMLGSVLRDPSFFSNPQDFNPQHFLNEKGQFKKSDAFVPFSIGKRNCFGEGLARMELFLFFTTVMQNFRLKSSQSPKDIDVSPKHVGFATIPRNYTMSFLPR
Text: Human hepatic 9000g supernatant (S9) and cytosolic fraction were purchased from XenoTech, LLC. (pooled preparations from 20 donors; Kansas City, KS). Human hepatic microsomes from five individuals (HG32, HH94, HH81, HH74, and HH31), a pooled preparation from 150 donors, and microsomes prepared from insect cell lines expressing CYP1A2, 2A6, 2B6, 2C8, 2C9, 2C19, 2D6, 2E1, and 3A4 were purchased from BD Gentest. Insect microsomes expressing only NADPH-P450 oxidoreductase and cytochrome b5 were also used as control. These enzymes were stored at −80°C until use.
as §1, §3
Kinetic studies were performed using microsomes from five human livers (HG32, HH94, HH81, HH74, and HH31), cDNA-expressed CYP isoforms, or pooled human hepatic cytosol. In determining kinetic parameters, FT concentration ranged from 0.03 to 10 mmol/L. All reactions were performed in a linear range of 5-FU formation with respect to protein or CYP concentrations and incubation time.
Intrinsic clearance (CLint) was calculated as a ratio of V/S where V and S were the metabolite formation rate and the concentration of a probe substrate for CYP isoform, respectively, when the substrate concentration was well below the Km value. The RAF for each CYP isoform was calculated according to equation (3) (Venkatakrishnan et al. [2000]). [drawing 3] (3) n = 1A2, 2A6, 2C19, or 2E1.
The contribution of CYPn to the metabolism of R- and S-FT at their concentration of 30 μmol/L was subsequently calculated using equation (4). [drawing 4] (4) VCYPn = 5-FU formation rate in cDNA-expressed CYPn.

[5] = test system: recombinant human CYP2B6, 2C8, 2C9, 2D6, and 3A4; test: 5-FU formation from FT enantiomers by other cDNA-expressed CYP isoforms; assay type: in vitro ADME; conditions: other isoforms than CYP1A2, 2A6, 2C19, 2E1; FT enantiomers 0.03 mmol/L; 20 pmol CYP/mL
Method: (pooled preparations from 20 donors; Kansas City, KS). […] Insect microsomes expressing only NADPH-P450 oxidoreductase and cytochrome b5 were also used as control. These enzymes were stored at −80°C until use.
5-FU formed from FT was subjected to extensive metabolism by dihydropyrimidine dehydrogenase (DPD) contaminating human hepatic preparations. Therefore, a potent DPD inhibitor, CDHP, was always added to avoid the unexpected loss of 5-FU (Ikeda et al. [2000]; Yamamiya et al. [2010]). Incubation mixture for hepatic microsomal metabolism contained FT, microsomes (1 mg protein/mL), 0.1 mmol/L CDHP, and an NADPH-generating system consisting of 1.3 mmol/L β-NADP^+, 3.3 mmol/L glucose-6-phosphate, 3.3 mmol/L magnesium chloride, and 0.4 units glucose-6-phosphate dehydrogenase in 100 mmol/L Tris (pH 7.4). Metabolic reaction by S9 and cytosol (each 2 mg protein/mL) was carried out in 100 mmol/L phosphate (pH 7.4) because TPase requires phosphate ions for catalyzing the reaction. […] The spontaneous degradation of FT to 5-FU was evaluated using enzymes inactivated by heating them at 100°C for 5 min.
as §5

[6] = Effects of CYP-selective inhibitors on 5-FU formation from FT enantiomers in pooled human hepatic microsomes; assay type: in vitro ADME; conditions: pooled human hepatic microsomes; for effect on 5-FU formation from R-FT (in words): furafylline 25, quinidine 1, ketoconazole 1 μmol/L; for effect on 5-FU formation from S-FT (in words): furafylline 25, ticlopidine 20, quinidine 1, ketoconazole 1 μmol/L
Method: as §1, §2, §3, §4

SMILES: N[C@@H]1C[C@H]1c1ccccc1 (racemic) [tranylcypromine, tranylcypromine hydrochloride]
inhibition at 15 min ([1]; pooled human hepatic microsomes, S-FT 30 μmol/L, tranylcypromine 5 μmol/L, diethyldithiocarbamate 100 μmol/L): ~90%
inhibition at 15 min ([2]; pooled human hepatic microsomes, R-FT 30 μmol/L, tranylcypromine 5 μmol/L, diethyldithiocarbamate 100 μmol/L): ~90%

SMILES: Nn1nnc2ccccc21 [1-aminobenzotriazole, 1-Aminobenzotriazole]
effect on 5-FU formation from R-FT (in words) [3]: markedly reduced; also recorded: strong inhibitory effect
effect on 5-FU formation from S-FT (in words) [3]: markedly reduced; also recorded: strong inhibitory effect

SMILES: O=c1[nH]c(=O)n(C2CCCO2)cc1F (centres unmarked) [FT, 5-fluoro-1-(2-tetrahydrofuryl)-2, 4 (1H, 3H)-pyrimidinedione, reference compound]
oral bioavailability [4]: approximately 100%
CYP contribution (CYP2A6): over 85%
activity for the enantioselective metabolism of FT (in words) [5]: negligible activity

SMILES: Cl.N=C1CCCN1Cc1[nH]c(=O)[nH]c(=O)c1Cl [TPI, 5-chloro-6-(2-iminopyrrolidin-1-yl) methyl-2, 4 (1H,3H)-pyrimidinedione hydrochloride]
effect on 5-FU formation from R-FT (in words) [3]: only a minor effect; also recorded: only a slight effect
effect on 5-FU formation from S-FT (in words) [3]: only a minor effect; also recorded: not observed

SMILES: CCN(CC)C(=S)S [diethyldithiocarbamate, sodium diethyldithiocarbamate]
amount of 5-FU formed from R-FT, % of the control value ([6]; R-FT 30 μmol/L, diethyldithiocarbamate 100 μmol/L): 73 % of the control value
amount of 5-FU formed from S-FT, % of the control value ([6]; S-FT 30 μmol/L, diethyldithiocarbamate 100 μmol/L): 64 % of the control value
inhibition at 15 min [1]: 34%
inhibition at 15 min [2]: 27%

The remaining lines, values ahead:

effect on 5-FU formation from R-FT (in words) ([6]; R-FT 30 μmol/L): no effect
effect on 5-FU formation from S-FT (in words) ([6]; S-FT 30 μmol/L): no effect
SMILES: Cc1nc2c([nH]1)c(=O)n(C)c(=O)n2Cc1ccco1 [furafylline]

effect on 5-FU formation from R-FT (in words) ([6]; R-FT 30 μmol/L): no effect
effect on 5-FU formation from S-FT (in words) ([6]; S-FT 30 μmol/L): no effect
SMILES: CC(=O)N1CCN(c2ccc(OCC3COC(Cn4ccnc4)(c4ccc(Cl)cc4Cl)O3)cc2)CC1 (centres unmarked) [ketoconazole]
